Laboratory results published in patent US20050009840A1 (SUGEN, INC., priority 2003, published 2005).

Target: T1, Met kinase domain (GST fusion protein) (Homo sapiens, UniProt P08581)
T1 construct: Purified GST fusion protein containing the Met kinase domain
Test: Met transphosphorylation assay (ELISA, poly(glu-tyr) substrate);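 note: Cell-free ELISA with plate-bound poly(Glu:Tyr 4:1) phosphorylated by GST-fused Met kinase domain plus ATP and Mn2+, phosphotyrosine detected by anti-phosphotyrosine antibody with HRP and ABTS read-out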
Type: biochemical
Settings: read-out: Met IC50

T1 sequence (P08581 1078-1345 limits assumed): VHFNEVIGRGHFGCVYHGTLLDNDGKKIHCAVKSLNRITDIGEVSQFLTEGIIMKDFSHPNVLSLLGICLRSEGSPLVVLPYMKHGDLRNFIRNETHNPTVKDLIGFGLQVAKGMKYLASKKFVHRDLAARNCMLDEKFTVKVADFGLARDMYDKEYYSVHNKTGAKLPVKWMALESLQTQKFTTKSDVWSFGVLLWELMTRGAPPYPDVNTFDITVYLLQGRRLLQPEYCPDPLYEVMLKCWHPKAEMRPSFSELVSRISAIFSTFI

| IC50 [nM] | Structure (SMILES) |
| --- | --- |
| 69 | CC(Oc1nc(-c2cccc(C(=O)N3CC[C@H](N)C3)c2)cnc1N)c1c(Cl)ccc(F)c1Cl (stereo partly drawn) [II-84, (3-{5-Amino-6-[1-(2,6-dichloro-3-fluoro-phenyl)-ethoxy]-pyrazin-2-yl}-phenyl)-[(3S)-3-amino-pyrrolidin-1-yl)-m-ethanone] |
| 110 | CC(Oc1nc(-c2cccc(C(=O)N3CC[C@@H](N)C3)c2)cnc1N)c1c(Cl)ccc(F)c1Cl (stereo partly drawn) [II-85, (3-{5-Amino-6-[1-(2,6-dichloro-3-fluoro-phenyl)-ethoxy]-pyrazin-2-yl}-phenyl)-[(3R)-3-amino-pyrrolidin-1-yl)-m-ethanone] |
| 150 | CC(Oc1nc(-c2cccc(C(=O)NCCCN3CCCC3)c2)cnc1N)c1c(Cl)ccc(F)c1Cl (stereo not drawn) [II-91, 3-{5-Amino-6-[1-(2,6-dichloro-3-fluoro-phenyl)-ethoxy]-pyrazin-2-yl}-N-(3-pyrrolidin-1-yl-propyl)-benzamide] |
| 150 | CC(Oc1nc(-c2cccc(C(=O)N3CCC(N4CCCC4)CC3)c2)cnc1N)c1c(Cl)ccc(F)c1Cl (stereo not drawn) [II-92, (3-{5-Amino-6-[1-(2,6-dichloro-3-fluoro-phenyl)-ethoxy]-pyrazin-2-yl}-phenyl)-(4-pyrrolidin-1-yl-piperidin-1-yl)-methanone] |
| 220 | Nc1ncc(-c2ccc(C(=O)NCCN3CCOCC3)cc2)nc1OCc1cccc(F)c1C(F)(F)F [II-94, 4-[5-Amino-6-(3-fluoro-2-trifluoromethyl-benzyloxy)-pyrazin-2-yl]-N-(2-morpholin-4-yl-ethyl)-benzamide] |
| 81 | CN1CCC(NC(=O)c2ccc(-c3cnc(N)c(OCc4cccc(F)c4C(F)(F)F)n3)cc2)CC1 [II-95, 4-[5-Amino-6-(3-fluoro-2-trifluoromethyl-benzyloxy)-pyrazin-2-yl]-N-(1-methyl-piperidin-4-yl)-benzamide] |
| 150 | CC(Oc1nc(-c2cccc(C(=O)NCCCN3CCCC3)c2)cnc1N)c1c(Cl)ccc(F)c1Cl (stereo not drawn) [II-96, 3-{5-Amino-6-[1-(2,6-dichloro-3-fluoro-phenyl)-ethoxy]-pyrazin-2-yl}-N-(3-pyrrolidin-1-yl-propyl)-benzamide] |
| 350 | CC(Oc1nc(-c2cccc(C(=O)NCCCN3CCCC3)c2)cnc1N)c1c(F)ccc(F)c1Cl (stereo not drawn) [II-97, 3-{5-Amino-6-[1-(2-chloro-3,6-difluoro-phenyl)-ethoxy]-pyrazin-2-yl}-N-(3-pyrrolidin-1-yl-propyl)-benzamide] |
| 210 | CC(Oc1nc(-c2cccc(C(=O)NC3CCN(C)CC3)c2)cnc1N)c1c(F)ccc(F)c1Cl (stereo not drawn) [II-98, 3-{5-Amino-6-[1-(2-chloro-3,6-difluoro-phenyl)-ethoxy]-pyrazin-2-yl}-N-(1-methyl-piperidin-4-yl)-benzamide] |
| 180 | CC(Oc1nc(-c2cccc(C(=O)NCCN3CCCC3)c2)cnc1N)c1c(F)ccc(F)c1Cl (stereo not drawn) [II-99, 3-{5-Amino-6-[1-(2-chloro-3,6-difluoro-phenyl)-ethoxy]-pyrazin-2-yl}-N-(2-pyrrolidin-1-yl-ethyl)-benzamide] |
| 310 | CC(Oc1nc(-c2cccc(C(=O)NCCN3CCOCC3)c2)cnc1N)c1c(F)ccc(F)c1Cl (stereo not drawn) [II-100, 3-{5-Amino-6-[1-(2-chloro-3,6-difluoro-phenyl)-ethoxy]-pyrazin-2-yl}-N-(2-morpholin-4-yl-ethyl)-benzamide] |
| 640 | CC(=O)N1CCN(CCNC(=O)c2cccc(-c3cnc(N)c(OC(C)c4c(F)ccc(F)c4Cl)n3)c2)CC1 (stereo not drawn) [II-101, N-[2-(4-Acetyl-piperazin-1-yl)ethyl]-3-{5-amino-6-[1-(2-chloro-3,6-difluoro-phenyl)-ethoxy]-pyrazin-2-yl}-benzamide] |
| 100 | CC(Oc1nc(-c2ccc(C(=O)NCCCN3CCCC3)cc2)cnc1N)c1c(F)ccc(F)c1Cl (stereo not drawn) [II-109, 4-{5-Amino-6-[1-(2-chloro-3,6-difluoro-phenyl)-ethoxy]-pyrazin-2-yl}-N-(3-pyrrolidin-1-yl-propyl)-benzamide] |
| 160 | CC(Oc1nc(-c2ccc(C(=O)N3CCN(C)CC3)cc2)cnc1N)c1c(F)ccc(F)c1Cl (stereo not drawn) [II-110, (4-{5-Amino-6-[1-(2-chloro-3,6-difluoro-phenyl)-ethoxy]-pyrazin-2-yl}-phenyl)-(4-methyl-piperazin-1-yl)-methanone] |
| 170 | CC(Oc1nc(-c2ccc(C(=O)N3CCC(N4CCCC4)CC3)cc2)cnc1N)c1c(F)ccc(F)c1Cl (stereo not drawn) [II-111, (4-{5-Amino-6-[1-(2-chloro-3,6-difluoro-phenyl)-ethoxy]-pyrazin-2-yl}-phenyl)-(4-pyrrolidin-1-yl-piperidin-1-yl)-methanone] |
| 190 | CC(Oc1nc(-c2ccc(C(=O)N3C[C@@H](C)N[C@@H](C)C3)cc2)cnc1N)c1c(F)ccc(F)c1Cl (stereo partly drawn) [II-112] |
| 180 | CC(Oc1nc(-c2ccc(C(=O)N3CCC[C@H]3CN3CCCC3)cc2)cnc1N)c1c(F)ccc(F)c1Cl (stereo partly drawn) [II-113, (4-{5-Amino-6-[1-(2-chloro-3,6-difluoro-phenyl)-ethoxy]-pyrazin-2-yl}-phenyl)-((S)-2-pyrrolidin-1-ylmethyl-pyrrolidin-1-yl)-methanone] |
| 130 | CC(Oc1nc(-c2ccc(C(=O)N3CCC[C@@H]3CN3CCCC3)cc2)cnc1N)c1c(F)ccc(F)c1Cl (stereo partly drawn) [II-114, (4-{5-Amino-6-[1-(2-chloro-3,6-difluoro-phenyl)-ethoxy]-pyrazin-2-yl}-phenyl)-((R)-2-pyrrolidin-1-ylmethyl-pyrrolidin-1-yl)-methanone] |
| 78 | CC(Oc1nc(-c2ccc(C(=O)N3CC[C@@H](N)C3)cc2)cnc1N)c1c(F)ccc(F)c1Cl (stereo partly drawn) [II-115, (4-{5-Amino-6-[1-(2-chloro-3,6-difluoro-phenyl)-ethoxy]-pyrazin-2-yl}-phenyl)-((R)-3-amino-pyrrolidin-1-yl)-methanone] |
| 190 | CC(Oc1nc(-c2ccc(C(=O)NC3CCN(C)CC3)cc2)cnc1N)c1c(F)ccc(F)c1Cl (stereo not drawn) [II-116, 4-{5-Amino-6-[1-(2-chloro-3,6-difluoro-phenyl)-ethoxy]-pyrazin-2-yl}-N-(1-methyl-piperidin-4-yl)-benzamide] |
| 110 | CC(Oc1nc(-c2ccc(C(=O)NCCN3CCCC3)cc2)cnc1N)c1c(F)ccc(F)c1Cl (stereo not drawn) [II-117, 4-{5-Amino-6-[1-(2-chloro-3,6-difluoro-phenyl)-ethoxy]-pyrazin-2-yl}-N-(2-pyrrolidin-1-yl-ethyl)-benzamide] |
| 260 | CC(Oc1nc(-c2ccc(C(=O)NCCN3CCOCC3)cc2)cnc1N)c1c(F)ccc(F)c1Cl (stereo not drawn) [II-118, 4-{5-Amino-6-[1-(2-chloro-3,6-difluoro-phenyl)-ethoxy]-pyrazin-2-yl}-N-(2-morpholin-4-yl-ethyl)-benzamide] |
| 480 | CC(=O)N1CCN(CCNC(=O)c2ccc(-c3cnc(N)c(OC(C)c4c(F)ccc(F)c4Cl)n3)cc2)CC1 (stereo not drawn) [II-119, N-[2-(4-Acetyl-piperazin-1-yl)-ethyl]-4-{5-amino-6-[1-(2-chloro-3,6-difluoro-phenyl)-ethoxy]-pyrazin-2-yl}-benzamide] |

| Structure (SMILES) | IC50 [nM] |
| --- | --- |
| CC(=O)N1CCN(CCNC(=O)c2cccc(-c3cnc(N)c(OC(C)c4c(Cl)ccc(F)c4Cl)n3)c2)CC1 (stereo not drawn) [II-87, N-[2-(4-Acetyl-piperazin-1-yl)-ethyl]-3-{5-amino-6-[1-(2,6-dichloro-3-fluoro-phenyl)-ethoxy]-pyrazin-2-yl}-benzamide] | 186 |
